Measured values: ChEMBL document CHEMBL4043259, “From UTP to AR-C118925, the discovery of a potent non nucleotide antagonist of the P2Y2 receptor” (Bioorg Med Chem Lett, 2017)

Columns and labels:
P2Y purinoceptor 2 = P2Y purinoceptor 2 (Homo sapiens, UniProt P41231); assay: Antagonist activity at human P2Y2R expressed in human Jurkat cells assessed as inhibition of UTP-activated intracellular calcium mobilization by fluo-3AM dye based fluorescence assay; format: functional, cell-based; conditions: read-out: pA2 (converted)
P2Y purinoceptor 2, sequence (P41231 whole entry): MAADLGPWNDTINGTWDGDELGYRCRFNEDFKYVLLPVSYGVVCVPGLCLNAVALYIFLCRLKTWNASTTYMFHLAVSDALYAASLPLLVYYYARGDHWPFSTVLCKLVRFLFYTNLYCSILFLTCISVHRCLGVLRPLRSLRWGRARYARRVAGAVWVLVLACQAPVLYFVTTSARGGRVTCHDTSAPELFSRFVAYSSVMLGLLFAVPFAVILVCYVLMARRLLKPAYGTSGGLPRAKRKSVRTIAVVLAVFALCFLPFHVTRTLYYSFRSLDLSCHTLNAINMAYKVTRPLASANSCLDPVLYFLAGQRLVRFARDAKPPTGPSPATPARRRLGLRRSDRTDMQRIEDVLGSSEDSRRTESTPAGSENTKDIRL

[1] = Bioavailability in rat; format: ADME, organism-based; conditions: in vivo
[2] = Clearance in rat administered via iv; format: ADME; conditions: in vivo
[3] = Half life in rat administered via iv; format: ADME; conditions: in vivo
[4] = Volume of distribution at steady state in rat administered via iv; format: ADME; conditions: in vivo, read-out: Vdss

Row | Kb (P2Y purinoceptor 2) | SMILES | other results
1 | 39.8 nM | Cc1ccc2c(c1)C=Cc1cc(C)ccc1C2c1cn(Cc2nc(C(=O)N[C@@H](CC(=O)O)C(=O)O)cs2)c(=O)[nH]c1=S | –
2 | 1000 nM | O=c1[nH]c(=S)c(C(c2ccccc2)c2ccccc2)cn1[C@@H]1O[C@H](COP(=O)(O)OP(=O)(O)C(Cl)(Cl)P(=O)(O)O)[C@@H](O)[C@H]1O | –
3 | 63.1 nM | O=c1[nH]c(=S)c(C2c3ccccc3-c3ccccc32)cn1[C@@H]1O[C@H](COP(=O)(O)OP(=O)(O)C(Cl)(Cl)P(=O)(O)O)[C@@H](O)[C@H]1O | –
4 | 2000 nM | O=C(O)Cc1cccc(Cn2cc(C3c4ccccc4C=Cc4ccccc43)c(=S)[nH]c2=O)c1 | –
5 | 25.1 nM | Cc1ccc2c(c1)C=Cc1cc(C)ccc1C2c1cn(Cc2ccc(C(=O)N[C@@H](CC(=O)O)C(=O)O)o2)c(=O)[nH]c1=S | –
6 | 31.6 nM | Cc1ccc2c(c1)C=Cc1cc(C)ccc1C2c1cn(Cc2ccc(C(=O)Nc3nc(CC(=O)O)cs3)o2)c(=O)[nH]c1=S | –
7 | 3980 nM | O=C(O)c1cccc(Cn2cc(C3c4ccccc4C=Cc4ccccc43)c(=S)[nH]c2=O)n1 | –
8 | 6310 nM | O=C(O)c1cnc(Cn2cc(C3c4ccccc4C=Cc4ccccc43)c(=S)[nH]c2=O)s1 | –
9 | 3.16 nM | O=c1[nH]c(=S)c(C2c3ccccc3C=Cc3ccccc32)cn1[C@@H]1O[C@H](COP(=O)(O)OP(=O)(O)C(Cl)(Cl)P(=O)(O)O)[C@@H](O)[C@H]1O | –
10 | 39800 nM | O=C(O)c1csc(Cn2cc(C3c4ccccc4C=Cc4ccccc43)c(=O)[nH]c2=O)n1 | –
11 | 2000 nM | O=C(O)c1csc(Cn2cc(C3c4ccccc4C=Cc4ccccc43)c(=S)[nH]c2=O)n1 | –
12 | 1580 nM | O=C(O)c1coc(Cn2cc(C3c4ccccc4C=Cc4ccccc43)c(=S)[nH]c2=O)n1 | –
13 | 3980 nM | O=C(O)c1cccc(Cn2cc(C3c4ccccc4C=Cc4ccccc43)c(=S)[nH]c2=O)c1 | –
14 | – | Cc1ccc2c(c1)C=Cc1cc(C)ccc1C2c1cn(Cc2ccc(C(=O)Nc3nnn[nH]3)o2)c(=O)[nH]c1=S | bioavailability [1]: 0%; clearance [2]: 75 mL/min/kg; half-life [3]: 2.12 h; Vd [4]: 4.34 L/kg
15 | 15.8 nM | Cc1ccc(C(c2ccc(C)cc2)c2cn([C@@H]3O[C@H](COP(=O)(O)OP(=O)(O)C(Cl)(Cl)P(=O)(O)O)[C@@H](O)[C@H]3O)c(=O)[nH]c2=S)cc1 | –
16 | 79.4 nM | COc1ccc(C(c2ccc(OC)cc2)c2cn([C@@H]3O[C@H](COP(=O)(O)OP(=O)(O)C(Cl)(Cl)P(=O)(O)O)[C@@H](O)[C@H]3O)c(=O)[nH]c2=S)cc1 | –
17 | 20000 nM | O=c1[nH]c(=S)c(C2c3ccccc3C=Cc3ccccc32)cn1[C@@H]1O[C@H](CO)[C@@H](O)[C@H]1O | –
18 | 50.1 nM | O=c1[nH]c(=S)c(C2c3ccccc3Oc3ccccc32)cn1[C@@H]1O[C@H](COP(=O)(O)OP(=O)(O)C(Cl)(Cl)P(=O)(O)O)[C@@H](O)[C@H]1O | –
19 | 20 nM | O=c1[nH]c(=S)c(C(c2ccc(Cl)c(Cl)c2)c2ccc(Cl)c(Cl)c2)cn1[C@@H]1O[C@H](COP(=O)(O)OP(=O)(O)C(Cl)(Cl)P(=O)(O)O)[C@@H](O)[C@H]1O | –
20 | 63.1 nM | Cc1ccc2c(c1)C=Cc1cc(C)ccc1C2c1cn(Cc2ccc(C(=O)Nc3nc(CC(=O)N[C@@H](CC(=O)O)C(=O)O)cs3)o2)c(=O)[nH]c1=S | –
21 | 2510 nM | O=C(O)c1cc(Cn2cc(C3c4ccccc4C=Cc4ccccc43)c(=S)[nH]c2=O)cs1 | –
22 | 251 nM | Cc1ccc2c(c1)C=Cc1cc(C)ccc1C2c1cn(Cc2nc(C(=O)O)cs2)c(=O)[nH]c1=S | –
23 | 100 nM | Cc1ccc2c(c1)C=Cc1cc(C)ccc1C2c1cn(Cc2ccc(C(=O)O)o2)c(=O)[nH]c1=S | –
24 | 1260 nM | O=C(O)c1ccc(Cn2cc(C3c4ccccc4C=Cc4ccccc43)c(=S)[nH]c2=O)o1 | –
25 | 12.6 nM | O=c1[nH]c(=S)c(C(c2ccc(Cl)cc2)c2ccc(Cl)cc2)cn1[C@@H]1O[C@H](COP(=O)(O)OP(=O)(O)C(Cl)(Cl)P(=O)(O)O)[C@@H](O)[C@H]1O | –
26 | 200 nM | O=C(O)c1ccc(Cn2cc(C3c4ccc(Cl)cc4C=Cc4cc(Cl)ccc43)c(=S)[nH]c2=O)o1 | –
27 | 10 nM | O=c1[nH]c(=S)c(C2c3ccccc3CCc3ccccc32)cn1[C@@H]1O[C@H](COP(=O)(O)OP(=O)(O)C(Cl)(Cl)P(=O)(O)O)[C@@H](O)[C@H]1O | –
28 | 2510 nM | O=C(O)COc1cccc(Cn2cc(C3c4ccccc4C=Cc4ccccc43)c(=S)[nH]c2=O)c1 | –
